Experiments:
ERα receptor = assay: PRα induction assay in MCF7 cells (ERα agonism); assay type: cell-based; conditions: Homo sapiens, 24 hours, agonist mode, read-out: Relative IC50 (μM), PRα induction
Experimental: The purpose of the following PRα induction assay is to determine whether a test compound has agonistic activity against ERα receptor (an agonist would be expected to activate the receptor.)
Culture MCF7 (purchased from ATCC HTB-22) in DMEM media supplemented with 10% FBS, 0.01 mg/mL human insulin 1 and 1% penicillin/streptomycin antibiotics and plate the cells (prior to becoming 70% confluent) in 384-well flat-bottom plates at a density of 4,000 cells per well in 20 μL volume in DMEM phenol red free media containing 10% FBS (charcoal stripped). Incubate the cells overnight in a cell culture incubator (5% CO2, 95% relative humidity at 37° C.) and allow the cells to attach to the plate. The following day, dose the cells with test compound. Use an Echo 555 acoustic dispenser to prepare compound serial dilutions (1:3) in a range from 6 μM to 0.0003 μM. […]
The following day, wash cells with PBS 0.05% TWEEN® 20 (2×20 μL) and incubate with secondary antibody (20 μL/well) (1:1000 dilution, Goat anti-rabbit IgM ALEXA FLUOR™ 488) in PBS 1% BSA for 105 minutes at room temperature. […] Scan plates with ACUMEN EXPLORER™ [Laser-scanning fluorescence microplate cytometer manufactured by TTP LABTECH LTD] to measure progesterone receptor alpha. […]

[1] = test system: MCF7-ESR1 Y537N mutant cells; assay: Cell proliferation assay in MCF7-ESR1 Y537N-682; assay type: cell-based; conditions: Homo sapiens, seven days, n=6, read-out: Relative IC50 (nM), cell proliferation
MCF7 xenograft tumor = assay: In vivo tumor growth inhibition study in MCF7 xenograft tumor implanted in mice; conditions: MCF7 breast cancer xenograft, 30 mg/kg QD, oral gavage
Experimental: The purpose of the following xenograft tumor growth inhibition assay is to measure reduction in tumor volume in response to test compound administration.
Twenty-four hours prior to implantation of MCF7 cells, implant estrogen pellets (0.18 mg/pellet, […], 90-day release, Innovative Research) subcutaneously.

ERα (Y537S mutant) = target: T1, ERα (Y537S mutant) (Homo sapiens, UniProt P03372, Y537S); assay: ERα (Y537S mutant) competition binding assay; conditions: 3H-estradiol competition, n=3
T1 sequence (P03372 1-595 Y537S): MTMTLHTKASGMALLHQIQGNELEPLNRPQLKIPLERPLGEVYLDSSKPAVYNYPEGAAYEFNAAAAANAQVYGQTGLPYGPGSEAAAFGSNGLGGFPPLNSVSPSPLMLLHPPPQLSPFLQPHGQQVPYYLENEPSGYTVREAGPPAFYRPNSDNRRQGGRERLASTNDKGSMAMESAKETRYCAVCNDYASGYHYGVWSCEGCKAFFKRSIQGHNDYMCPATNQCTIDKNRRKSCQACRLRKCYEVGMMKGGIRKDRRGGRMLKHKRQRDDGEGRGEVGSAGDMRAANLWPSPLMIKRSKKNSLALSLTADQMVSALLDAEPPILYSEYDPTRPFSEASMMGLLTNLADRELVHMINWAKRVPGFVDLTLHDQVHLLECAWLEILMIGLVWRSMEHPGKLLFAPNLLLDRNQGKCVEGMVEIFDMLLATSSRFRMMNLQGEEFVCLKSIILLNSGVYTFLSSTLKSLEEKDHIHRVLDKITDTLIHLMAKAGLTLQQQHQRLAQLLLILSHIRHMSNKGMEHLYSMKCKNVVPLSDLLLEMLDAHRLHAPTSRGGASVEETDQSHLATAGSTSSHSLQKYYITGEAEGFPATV
Experimental: The purpose of the following ER competition binding assays is to determine the binding affinity of a test compound against ERα (wild type) and ERα (Y537S mutant) See Fanning et al., “Estrogen receptor alpha somatic mutations Y537S and D538G confer breast cancer endocrine resistance by stabilizing the activating function-2 binding conformation,” eLife 2016; 5:e12792.
Run the competition binding assay in a buffer containing 50 mM HEPES, pH 7.5, 1.5 mM EDTA, 150 mM NaCl, 10% glycerol, 1 mg/mL ovalbumin, and 5 mM DTT, using 0.025 µCi per well ^3H-estradiol (118 Ci/mmol, 1 mCi/mL), 7.2 ng/well ERα (wild type), or 7.2 ng/well ERα (Y537S mutant). Add the test compound at 10 different concentrations ranging from 10,000 nM to 0.5 nM, and determine nonspecific binding in the presence of 1 μM of […]. Incubate the binding reaction (140 μL) for 4 hours at room temperature, and then add cold dextran-charcoal buffer (70 μL) (containing per 50 mL of assay buffer, 0.75 g of charcoal and 0.25 g of dextran) to each reaction. Mix the plates for 8 minutes on an orbital shaker at 4° C. and then centrifuge at 3000 rpm at 4° C. for 10 minutes. […] After an incubation of 2.5 hours, read the plates in a Wallac Microbeta counter. […]

IC50 (ERα receptor): > 2 µM
IC50 [1]: 7.96 ± 3.69 nM
Ki (ERα (Y537S mutant)): 21.2 ± 2.12 nM
Structure (SMILES): O=C(c1ccc(OCCN2CC(CF)C2)cc1)c1c(-c2ccc(C(F)(F)F)cc2F)cnc2cc(O)ccc12 [Example 1, (4-{2-[3-(Fluoromethyl)azetidin-1-yl]ethoxy}phenyl){3-[2-fluoro-4-(trifluoromethyl)phenyl]-7-hydroxyquinolin-4-yl}methanone]
Delta T/C % or Regression % (MCF7 xenograft tumor): −36%
